{"source": "patent US20190064146A1", "about": "“IMMUNE CELLS HAVING INCREASED IMMUNITY OR RESISTANCE TO AN IMMUNOSUPPRESSIVE CYTOKINE AND USE OF THE SAME” (Innate Tumor Immunity, INC., priority 2015, published 2019)", "tested_on": "EG.7 tumor cells", "assay": "Adoptive transfer of in vitro activated OT-1 CD8+ T cells into mice with established EG.7 flank tumors", "format": "in vivo", "conditions": "OT-1 splenocytes activated with OVA antigen 1 μg/mL plus TGF-β 10 ng/mL and IL-1β 10 ng/mL for 5 days; 5×10^6 CD8+ cells intraperitoneally into C57BL/6J mice with 7-day EG.7 tumors", "method": "To induce tumor, 1×10^6 EG.7 tumor cells, which expressed the OVA antigen, were injected subcutaneously on the flank of Black/6 mice. In this condition, after 7 days EG.7 cells from palpable tumors. To generate anti-tumor T cells, splenocytes from OT-1 mice, which have a transgenic TCR that recognize OVA antigen, were activated with OVA antigen (1 μg/mL) in the presence of TGF-β, or the presence of TGF-β and IL-1β. After 5 days CD8^+ cells were purified. […] Tumor volume was recorded 3 times a week until the end of the study. […]\nOT-1 mice were anesthetized and spleens were harvested and strained through a 70-um filter with PBS with 10% FBS. […] After washing, cells were counted and placed in tissue culture at a final concentration of 1×10^6 cells/mL. […]\nTumors were established with subcutaneous flank injections of 1×10^6 cells suspended in 100 μL PBS. Tumors were measured three times a week and volumes were estimated using the formula 3.14×[largest diameter×(perpendicular diameter)^2]/6. […]\nThe average tumor volumes of the combination treatment group over time was plotted and compared to control treated with vehicle. […] For statistical comparisons, Two-Way Anova with Bonferroni correction was calculated with GaphPrism software."}
{"substance": "IL-1β: exemplary NLRP3 activator; cytokine interleukin-1β added to T cell culture", "values": [{"measurement": "CD8+ antitumor activity against established cancer (tumor volume)", "result": "promotes CD8^+ antitumor activity against established cancer"}]}
